Series [1] in a line: LC-MS/MS analysis of XN, DXN and TXN in mouse liver, plasma and muscle. Type of series: in vivo. The following applies: for Plasma concentration, fold greater than combined XN + IX / Muscle concentration, fold greater than combined XN + IX / Liver concentration, fold greater than combined XN + IX: HFD mice, 30 mg/kg/day in diet, 13 weeks; for Muscle concentration, fold greater than combined XN + IX: hind leg skeletal muscle; for Liver concentration, fold greater than combined XN + IX: steady state. From the text: Nine-week old male C57BL/6J mice, obtained from The Jackson Laboratory (Bar Harbor, ME, USA), were housed individually in plastic cages under a 12–12-hr light-dark cycle. They were assigned randomly to four groups consisting of 12 mice each. One group (control) was fed a HFD (Dyets Inc., Bethlehem, PA, USA) containing 60%, 20% and 20% total calories from fat, carbohydrate and protein, respectively, and the other three groups were fed the HFD containing XN, DXN, or TXN. The test compounds were dissolved in an isotropic mixture of oleic acid:propylene glycol:Tween 80, 0.9:1:1 by weight (OPT) before incorporation into the HFD. The control diet contained an identical amount of OPT. All diets were prepared in pellet form by Dyets, Inc. (Bethlehem, PA, USA). The mouse diets were formulated to deliver a dose of 30 mg test compound per kg body weight per day. Food intake was measured three times per week and body weights were recorded weekly. At the end of 13 weeks of feeding, the mice were euthanized and blood, liver and skeletal muscle were collected for analyses. All animal protocols were approved by Institutional Animal Care and Use Committee (IACUC) at Oregon State University. Animal experiments were carried out in accordance with the relevant guidelines and regulations.
Liver and plasma from each mouse were subjected to enzymatic hydrolysis, extracted and analyzed using the paper strip extraction technique as previously described[36],[96]. For skeletal muscle, approximately 200 mg of frozen muscle tissue were placed into tubes containing ceramic beads (1.4 mm Ceramic, Bulk Beads, Fisher Scientific, Pittsburgh, PA, USA) and methanol:water (90:10; 500 μL/200 mg tissue) and homogenized using a Precellys 24 (PEQLAB Biotechnology GmbH, Germany). The tissue was homogenized for 3 × 30 sec at 6,500 rpm with 20 sec intervals and then centrifuged at 15,700 × g for 10 minutes and 100 μl of supernatant was used for the paper strip extraction as previously described[36],[96]. Concentrations of XN, DXN and TXN were calculated using an internal standard, 2′,4-dihydroxychalcone (DHC), with matrix-based calibration curves and Analyst Software (Analyst 1.5, AB Sciex, Foster City, CA, USA). Samples were analyzed by LC-MS/MS using an AB Sciex 4000 Q-trap triple quadrupole mass spectrometer using a source temperature of 600 °C and a needle voltage of −4500 V. The source, curtain and collision gases were all nitrogen. Analytes were separated by high performance liquid chromatography (HPLC) using a 2.1 × 50 mm Agilent Zorbax 300 SB – C8 3.5 µm column (Agilent, Santa Clara, CA, USA). The elution gradient was 25 to 60% solvent B (0.1% formic acid in acetonitrile) in solvent A (aqueous 0.1% formic acid) in 2.6 minutes using a flow rate of 0.5 ml/min after an initial 1.4 min at 25% solvent B. The gradient was then increased to 100% solvent B in 0.1 min and held at 100% B for 1.4 min, then dropped to 25% B in 0.25 minutes, followed by re-equilibration with 25% B for 9.25 minutes. SRM transitions for quantification were: m/z 353 → 119 for XN, m/z 353 → 233 for IX, m/z 339 → 219 for 8-PN, m/z 355 → 249 for DXN, m/z 357 → 251 for TXN, and m/z 239 → 119 for DHC.

The next series relates to HFD-fed C57BL/6 J mice. The arrangement: method as in PMID 26976708. The following applies: oral, 60 mg/kg/day; cited from earlier work.
A further series deals with mice. The following applies: cited from earlier work.
A further series has as its system quinone reductase. The arrangement: method as in PMID 10737704. The following applies: cited from earlier work.

The values below come from PMC5766630, “Non-estrogenic Xanthohumol Derivatives Mitigate Insulin Resistance and Cognitive Impairment in High-Fat Diet-induced Obese Mice” (Scientific Reports, 2018).

For the compound `COc1cc(O)c(CC=C(C)C)c(O)c1C(=O)CCc1ccc(O)cc1` [DXN, α,β-Dihydroxanthohumol], in series [1], the “Plasma concentration, fold greater than combined XN + IX” value is 7 fold; the “Muscle concentration, fold greater than combined XN + IX” value stood at 7 fold; the “Liver concentration, fold greater than combined XN + IX” value is given as 6 fold.

With `COc1cc(O)c(CCC(C)C)c(O)c1C(=O)CCc1ccc(O)cc1` [TXN, tetrahydroxanthohumol], in series [1], the “Plasma concentration, fold greater than combined XN + IX” value turned out to be 10 fold; the “Muscle concentration, fold greater than combined XN + IX” value is listed as 5 fold; the “Liver concentration, fold greater than combined XN + IX” value is on record as 12 fold. Also, the concentration at 13 weeks in series [1] (male, C57BL/6J, mouse, liver, oral dosing at 30 mg/kg/day, read-out: Liver concentration (highest measured)) worked out at 5 µM. In addition, in series [1] (mouse dose of 30 mg/kg/day), the “Liver tissue concentration (highest measured)” value was 5 nmol/g.

For `COc1cc(O)c(CC=C(C)C)c(O)c1C(=O)/C=C/c1ccc(O)cc1` [XN, 3′-[3,3-dimethylallyl]-2′,4′,4-trihydroxy-6′-methoxychalcone], in the series on HFD-fed C57BL/6 J mice, the “HOMA-IR, change vs vehicle/HFD controls” value was −52%; the “Interleukin-6 (IL-6), change vs vehicle/HFD controls” value is reported as −78%; the “Leptin, change vs vehicle/HFD controls” value is −41%; the “Plasma LDL-c, change vs vehicle/HFD controls” value is −80%. For the same compound, the “Plasma PCSK9, change vs vehicle/HFD controls” value with HFD-fed C57BL/6 J mice is listed as −44%. In the series on mice, the “Dose with no detectable toxicity” value is recorded as “at least 1,000 mg/kg”. For the same compound, in the series on quinone reductase, the “Induction of quinone reductase” value was “potent inducer”.
